From patent US11518763B2 (SCOHIA PHARMA, INC., priority 2018, dated 2022)
Read-outs that look alike come from different tables or passages of the source.

What was measured:
[1] = amide bond, HATU, DMF, 25.0 °C, 4.0 h
[2] = biological target: T1, binding between NRF2 and KEAP1 (biotinylated human KEAP1 protein (Kelch domain), TAMRA-labeled NRF2 peptide) (Homo sapiens, UniProt Q14145); experiment: Measurement of activity of inhibiting NRF2 binding (NRF2-KEAP1 TR-FRET); details: inhibition rate relative to control at 100 nM test compound; TR-FRET; 60 min at room temperature; read-out: NRF2 binding inhibitory activity (at 100 nM)
T1 construct: biotinylated human KEAP1 protein (Kelch domain); biotin (biotinylated)
T1 sequence (Q14145 321-609 limits assumed): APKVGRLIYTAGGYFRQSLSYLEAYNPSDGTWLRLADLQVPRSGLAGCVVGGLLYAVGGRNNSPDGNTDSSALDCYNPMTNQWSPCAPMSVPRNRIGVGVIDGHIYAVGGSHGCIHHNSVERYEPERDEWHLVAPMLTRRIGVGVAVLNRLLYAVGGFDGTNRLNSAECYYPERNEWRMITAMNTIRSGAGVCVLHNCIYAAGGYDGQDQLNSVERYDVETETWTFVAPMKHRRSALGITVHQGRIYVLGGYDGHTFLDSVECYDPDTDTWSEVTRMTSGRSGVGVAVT

For `COC(=O)C(C)(C)C1c2ccc3c(c2)CN(CC3)C(=O)c2c(C)cc(cc2C)COCCCn2nnc3c(C)c1ccc32` (stereo not shown), the ring closure, yield of all isomers ([1]; from COC(=O)C(C)(C)C(c1ccc2c(c1)CNCC2)c1ccc2c(nnn2CCCOCc2cc(C)c(C(=O)O)c(C)c2)c1C, 30.4 mM) was 29.6%.
In the case of `COC(=O)C(C)(C)C1c2ccc3c(c2)CN(CC3)C(=O)c2ccc(cc2)COCCCn2nnc3c(C)c1ccc32` (stereo not shown), the ring closure, yield of all isomers ([1]; from COC(=O)C(C)(C)C(c1ccc2c(c1)CNCC2)c1ccc2c(nnn2CCCOCc2ccc(C(=O)O)cc2)c1C, 18.6 mM) is reported as 20.7%.
For `CCOC(=O)CC1c2ccc3c(c2)CN(CC3)C(=O)c2ccc(cc2)CCCCCn2nnc3c(C)c1ccc32` (stereo not shown) [Example 37, Ethyl [32-methyl-20-oxo-8,9,10,21-tetraazahexacyclo[19.5.3.2^16,19.1^3,7.0^6,10.0^24,28]dotriaconta-1(26),3(32),4,6,8,16,18,24,27,30-decaen-2-yl]acetate], the ring closure, yield of all isomers ([1]; from CCOC(=O)CC(c1ccc2c(c1)CN(C(=O)OC(C)(C)C)CC2)c1ccc2c(nnn2CCCCCc2ccc(C(=O)OC(C)(C)C)cc2)c1C, 51.2 mM, 2 steps) was 52.4% and the inhibition at 0.1 µM [2] was 29%.
